Common to all, as to type: cell-based, human
The test system of one assay is A2058. Put plainly: MTT assay (metabolic activity). The protocol:
(§1) Cell lines A2058 (human melanoma lymph node metastasis, cat. 91100402) from ECACC (Public Health England, Salisbury, UK) and BLM (human melanoma lung metastasis a gift from prof. K. Smetana, Institute of Anatomy, Charles University in Prague) were cultured in a medium consisting of high glucose Dulbecco’s Modified Eagle’s Medium (DMEM) and sodium pyruvate (GE Healthcare, Piscataway, NJ, USA). The growth medium was supplemented with a 10% fetal bovine serum (FBS) and antibiotic/antimycotic solution 1 × HyClone™ (GE Healthcare, Chicago, IL, USA). The MCF-10A (human mammary epithelial cells) cell line was cultured in a medium consisting of high glucose Dulbecco’s Modified Eagle’s Medium F12 (DMEM/F12) (Biosera, Kansas City, MO, USA). The growth medium was supplemented with a 10% FBS, antibiotic/antimycotic solution 1 × HyClone™ (GE Healthcare, Chicago, IL, USA), epidermal growth factor (EGF) (20 ng/mL final), hydrocortisone (0.5 μg/mL final) and insulin (10 μg/mL final) (Sigma-Aldrich Chemie, Steinheim, Germany). Cells were cultured in humidified air at 37 °C with atmosphere containing 5% CO2.
(§2) The half-maximal inhibitory concentration values (IC50) and metabolism inhibition of tested synthetic chalcone derivatives were determined by MTT (3-(4,5-di-methylthiazol-2-yl)2,5-diphenyltetrazolium bromide) colorimetric assay (Sigma-Aldrich Chemie, Steinheim, Germany). Tested cell lines were seeded at a density of 5 × 10^3 cells/well in 96-well culture plates. After 24 h, the tested chalcones in concentrations of 100, 50 and 10 μmol/L were added and incubation proceeded for the next 72 h. In the next step, 10 μL of MTT (5 mg/mL) was added to each well containing cells and incubated for another 4 h at 37 °C during which MTT was metabolized to insoluble formazan in cells. After 4 h, 100 μL of a 10% sodium dodecyl sulphate (SDS) was added to each well and another 24 h were allowed for the formazan crystals to dissolve. The metabolic activity of cells was evaluated by measuring the absorbance at wavelength 540 nm using the automated Cytation™ 3 Cell Imaging Multi-Mode Reader (Biotek, Winooski, VT, USA). Three independent analyses were performed.
A general note: Formazan colour is commonly taken as a measure of viable cells.

The next assay concerns BLM. Put plainly: MTT assay (metabolic activity). As to the method: as §1, §2
The subject of assay [1] is A2058 melanoma cells. Nature of the assay: AO/PI viability assay (fluorescence microscopy). The conditions noted are these: A2058, 1C 10 μmol/L, 24, 48 and 72 h. The protocol:
(§3) The A2058 and BLM melanoma cells were seeded at a density of 5 × 10^4/well into 6-well culture plates. Twenty-four hours after seeding, A2058 cells were treated with chalcone 1C at 10 μmol/L concentration, BLM cells at 20 μmol/L concentration and both melanoma cell lines were treated with vehicle (DMSO) at the same concentrations. At 24, 48 and 72 h after treatment, the culture medium was removed, the cells were washed with washing buffer (PBS) and fixed with 4% paraformaldehyde (pH 7.2) for 30 min. In the next step, the paraformaldehyde was removed, the cells were washed with PBS and the staining solution (10 μg/mL acridine orange and 10 μg/mL propidium iodide, Sigma-Aldrich) was added to each well for 1 h incubation at room temperature in the dark. Finally, the staining solution was removed, the cells were washed with PBS and apoptosis was observed using an automated Cytation™ 3 Cell Imaging Multi-Mode Reader (Biotek, Winooski, VT, USA).

The test system of the next assay is BLM melanoma cells. Put plainly: AO/PI viability assay (fluorescence microscopy). The conditions noted are these: 1C 20 μmol/L, 24, 48 and 72 h. The protocol:
as §3

Assay [2] relates to A2058 melanoma cells. Nature of the assay: Western blot analyses of protein expression/phosphorylation. As to the method: Melanoma cells (A2058 and BLM) were treated with the tested chalcone 1C (10 μM and 20 μM) for 24, 48 and 72 h. Protein lysates from melanoma cells were prepared using a Laemmle lysis buffer containing glycerol, 1M Tris/HCl (pH 6.8), 20% sodium dodecyl sulfate (SDS), deionized H20, phosphatase and protease inhibitors (Sigma-Aldrich) and a sonication process. The protein concentrations were determined by the Pierce® BCA Protein Assay Kit (Thermo Scientific, Rockford, IL, USA) and measured by an automated Cytation™ 3 Cell Imaging Multi-Mode Reader (Biotek) at a wavelength of 570 nm. Proteins (25–40 μg of sample per well) were separated on SDS-PAA gel (12%) at 100 V for 3 h and transferred to a polyvinylidene difluoride (PVDF) membrane using the iBlot™ 2 Dry Blotting System (Invitrogen, Carlsbad, CA, USA). Membranes with transferred proteins were blocked in 5% BSA (bovine serum albumin; SERVA, Heidelberg, Germany) or 5% non-fat dry milk (Cell Signaling Technology®, Danvers, MA, USA) in TBS-Tween (pH 7.4) for 1 h at room temperature to minimise non-specific binding. Blocking was followed by incubation with primary antibodies (Table 6) overnight at 4 °C. The next day, membranes were washed in TBS-Tween (3 × 5 min) and incubated with the corresponding horseradish peroxidase (HRP)-conjugated anti-mouse or anti-rabbit secondary antibody for 1 h at room temperature. After incubation, membranes were washed again in TBS-Tween (3 × 5 min) and the expression of proteins was detected using the MF-ChemiBIS 2.0 Imaging System (DNR BIO-Imaging Systems, Jerusalem, Israel) with chemiluminescent ECL substrate (Thermo Scientific, Rockford, IL, USA). A densitometric analysis of Western Blot (WB) results was performed using the Image Studio™ Lite Software (LI-COR Biosciences, Lincoln, NE, USA). Equal loading was verified by using the β-actin antibody. Three independent analyses were performed.

Where [3] appears, read: A2058, 1C 10 μmol/L, 24, 48 and 72 h.

What is called IC50 is the midpoint of a concentration-inhibition curve. For the molecule `COc1cccc(OC)c1C(=O)/C=C/c1c2ccccc2nc2ccccc12` [Compound 1C, (2E)-3-(acridin-9-yl)-1-(2,6-dimethoxyphenyl)prop-2-en-1-one], in the assay with A2058 (Homo sapiens, A2058, 72 h incubation), half-maximal inhibition (IC50) was put at 7.96 ± 0.38 µM. In addition, the “Selectivity index, A2058 (MTT)” value in the assay on A2058 (MCF-10A vs A2058, calculated on the basis of MTT results) is on record as 4.6. The same molecule gave an IC50 in the assay with BLM (Homo sapiens, BLM, 72 h incubation) of 17.9 ± 0.87 µM. For the same molecule, the “Selectivity index, BLM (MTT)” value with BLM (MCF-10A vs BLM, calculated on the basis of MTT results) was 2.0. Also, in the assay with A2058 melanoma cells [1], the “Proliferation and viability (AO/PI staining)” value was “significant decrease in proliferation and viability”. Moreover, the “Proliferation and viability (AO/PI staining)” value with BLM melanoma cells is “significant decrease in proliferation and viability”. Moreover, in the assay on A2058 melanoma cells [2] (A2058, 1C 10 μmol/L), the “Levels of antiapoptotic protein Bcl-xL (WB)” value is “decreased levels”; the “Phosphorylation of Bad (WB)” value is given as “increasing up to 48 h”; the “Phosphorylation of Bcl-2 (WB)” value is “increased in A2058 up to 48 h and decreased at 72 h”. Moreover, the “Phosphorylation of Chk1 (WB)” value in the assay with A2058 melanoma cells [2] (A2058, 1C 10 μmol/L, 24, 48 (maximum) and 72 h) is “significantly induced”. Besides, in the assay on A2058 melanoma cells [2] (setting [3]), the “Levels of cleaved PARP (89 kDa) (WB)” value is given as “significantly increased”; the “Total and phosphorylated p53 protein (WB)” value is listed as “significant increase”. Moreover, the “Expression of p21 protein (WB)” value in the assay on A2058 melanoma cells [2] (A2058, 1C 10 μmol/L, after 24 and 48 h) was “significant increase”. The “Phospho-JNK (WB)” value in the assay on A2058 melanoma cells [2] (A2058, 1C 10 μmol/L, all tested timepoints) is “significantly increased”. The “Phosphorylated form of p38 MAPK (WB)” value in the assay with A2058 melanoma cells [2] (A2058, 1C 10 μmol/L, mainly after 48 h) is “significantly increased”. For the same molecule, the “Expression of α-, α1C- and β-tubulin (WB)” value in the assay on A2058 melanoma cells [2] (A2058, 1C 10 μmol/L, maximum after 48 and 72 h) is listed as “significant upregulation”. In addition, the “Phosphorylation of ERK1/2 (WB)” value in the assay on A2058 melanoma cells [2] (A2058, 1C 10 μmol/L, maximum after 48 h) was “significantly increased”. Also, the “Phosphorylated cyclin B1 (WB)” value with A2058 melanoma cells [2] (A2058, 1C 10 μmol/L, maximum after 72 h) is on record as “significant downregulation”. For the same molecule, the “Amounts of proapoptotic protein Bax and Bad (WB)” value with A2058 melanoma cells [2] (A2058, 1C 10 μmol/L, maximum at 48 h) was “significantly increased”. For the same molecule, in the assay on A2058 melanoma cells [2] (A2058, 1C 10 μmol/L, up to 48 h), the “Total Bcl-2 protein (WB)” value was “upregulated”.

The values above are taken from article PMC9603750, “Chalcone-Acridine Hybrid Suppresses Melanoma Cell Progression via G2/M Cell Cycle Arrest, DNA Damage, Apoptosis, and Modulation of MAP Kinases Activity” (International Journal of Molecular Sciences, 2022).
